Measured values reported in patent US20230172914A1, “BIOMARKER-BASED THERAPEUTIC COMPOSITION” (WELLMARKER BIO CO., LTD., priority 2019, published 2023).

Columns and labels:
[1] = tested on: KM12C cell line (active RON/RON mutant (Δ160)) tumor; assay: Tumor growth inhibition in animal model transplanted with KM12C (Experimental Example 10); format: in vivo, BALB/c nude mice
Protocol: 5-Week-old female BALB/c nude mice were purchased and acclimatized for 1 week. Then, human-derived colon cancer cell line KM12C (1.5×10^6 cells/mice) (cell line expressing active RON/RON mutant (Δ160)) was diluted in PBS, and injected subcutaneously (100 μl) into the right dorsal side of the mice. Comparative Examples 1 and Example 18 were orally administered when the tumor reached a size of about 100 mm^3. The drug was administered once a day for 2 weeks, and tumor size and body weight were measured twice a week. […] In addition, after completion of the drug administration, the experimental animals were euthanized, and then the tumors were extracted and weighed.
In addition, a portion of the extracted tumor tissue was fixed with 10% formalin, and then a paraffin block was produced therefrom. Then, changes in expression of each protein were checked through immunochemical staining. As a result, it was identified that in the group having received Example 18, expression of the active RON and p-ERK decreases, whereas expression of cleaved caspase 3 is induced (FIG. 11). Tumor tissues were collected from the vehicle group and the 5 mpk (mg/kg) treatment group, and changes in protein expression were compared through Western blotting.

[2] = tested on: colon cancer patient-derived cell line expressing active RON; assay: Cell death in colon cancer patient-derived cell line expressing active RON (immunofluorescence); format: cell-based, human; conditions: 5 ug, 48 hours, KRAS normal
Protocol: The following condition and methods were used to perform the present experiment. […] Then, the respective cell lines were seeded at 5×10^5 cells onto 24-well plates, in which one sterile 12 mmΦ microscope cover glass was placed on each well, and incubated. The respective colon cancer patient-derived cell lines under incubation were subjected to treatment with Example 18 and Comparative Example 1, respectively, at 5 ug, and then incubated for 48 hours. Each incubated plate was washed twice with PBS, and then fixed with 100% Me-OH at room temperature for 5 minutes. The Me-OH was removed, and washing with PBS was performed three times for 5 minutes each. Then, 100 ul of 0.1% Triton X-100 (in PBS) was dispensed thereinto and permeabilization was allowed to occur for 5 minutes. Washing with PBS was performed three times for 5 minutes each, and then PBS was added thereto to prevent drying. Parafilm was attached to the 24-well plate cover, and then PBS-T (PBS+0.1% Tween 20) containing 3% BSA was dropped by 20 μl onto the parafilm. […] Then, washing with PBS-T (PBS+0.1% Tween 20) was performed twice, and a fluorescence microscope was used to identify the staining. […] Then, the cover glass was placed thereon, and a fluorescence microscope was used to take a fluorescence image.

[3] = tested on: Colo320HSR cell line overexpressing RON mutants (mt #1: Δ160, mt #2: Δ155); assay: Drug efficacy after overexpression of RON mutants in Colo320HSR (trypan blue, Western blotting); format: cell-based
Protocol: Efficacy analysis for RON mutants was performed by overexpressing RON mutants, and then identifying cell death-inducing ability through Western blotting. Colo320HSR cell line was seeded onto a 100-mm plate, and then a RON mutant #1 (Δ160)- or RON mutant #2 (Δ155)-expressing vector was introduced into the cell line using a transfection solution (Polyplus). After 24 hours, the cell line was seeded onto a 60-mm plate at 2×10^5 cells. Then, after 24 hours, while performing medium exchange, the cells were subjected to treatment with Example 18 at respective concentrations (1 μM, 5 μM) for 48 hours.
After 48 hours, the cells and cell suspensions were collected (1,500 rpm, 3 minutes), and live cells and dead cells were quantitated (n=2) through trypan blue exclusion assay. Subsequently, the remaining cells were collected and lysed by adding RIPA Lysis Buffer (T&I) to the respective cells for the purpose of identifying, with Western blotting, inhibitory capacity on active RON and cell death-inducing ability. Then, proteins were quantified by BCA kit (Pierce).
Subsequently, the proteins were reacted with primary antibodies (active RON, cleaved caspase-3, beta actin), which were diluted 1:1,000 in 5% non-fat skim milk-TBST solution, at 4° C. for 24 hours or 48 hours. Then, washing with TBST was performed three times. The resultant was reacted with anti-rabbit and anti-mouse IgG conjugated horseradish peroxidase (HRP) secondary antibodies, which were diluted at 1:1,000, at room temperature for 2 hours. Then, washing with TBST was washed three times. Subsequently, the membrane was treated with the ECL solution (GE Healthcare), and developed by exposure to an X-ray film. Then, the bands were checked.

[4] = 5 mpk (mg/kg) treatment group vs vehicle
[5] = RON mutant-transfected Colo320HSR

CCOc1ccn(-c2ccc(F)cc2)c(=O)c1C(=O)Nc1ccc(Oc2ccnc3cc(-c4ccc(CN5CCOCC5)cn4)sc23)c(F)c1.Cl [Example 18, 4-ethoxy-N-[3-fluoro-4-({2-[5-(morpholinomethyl)pyridin-2-yl]thieno[3,2-b]pyridine-7-yl}oxy)phenyl]-1-(4-fluorophenyl)-2-oxo-1,2-dihydropyridine-3-carboxamide hydrochloride]
active RON expression level in tumor tissue (Western blotting) [1, 4]: decreased expression level
cleaved caspase 3 expression level in tumor tissue (Western blotting) [1, 4]: increased expression level
expression of cleaved caspase 3 in tumor tissue (immunochemical staining) ([1]; extracted tumor tissue): induced
expression of the active RON and p-ERK in tumor tissue (immunochemical staining) ([1]; extracted tumor tissue): decreases
change in mouse body weight ([1]; oral, once a day for 2 weeks): no change in mouse body weight
tumor growth inhibition efficacy (tumor size) ([1]; oral, once a day for 2 weeks): tumor growth inhibition efficacy with drug administration was observed
tumor weight compared with the vehicle group ([1]; oral, once a day for 2 weeks): decreased tumor weight was observed
cell death-inducing efficacy (cleaved caspase 3 immunofluorescence) [2]: exhibits cell death-inducing efficacy
cell death (trypan blue exclusion assay) ([3]; 1 μM, 5 μM, 48 hours, group transfected with RON mutant): cell death induction at the respective concentrations is observed
active RON expression level (Western blotting) [3, 5]: decreased expression level
cleaved caspase 3 expression level (Western blotting) [3, 5]: increased expression level
